Experimental data published in patent US11655216B2 (priority 2016, dated 2023).
pEC50: −log10 of the molar value. Read-outs that look alike come from different tables or passages of the source.

How the values were obtained:
[1] = biological target: T1, glutathione-S-transferase (GST) tagged LXRalpha LBD (ligand binding domain) (Homo sapiens, UniProt Q13133); test: biochemical; settings: for pEC50 / LXR alpha IP: potency (Inflection Point), compound-induced co-activator recruitment, TR-FRET
T1 construct: purchased Invitrogen pv4655
T1 sequence (Q13133 209-447 limits assumed): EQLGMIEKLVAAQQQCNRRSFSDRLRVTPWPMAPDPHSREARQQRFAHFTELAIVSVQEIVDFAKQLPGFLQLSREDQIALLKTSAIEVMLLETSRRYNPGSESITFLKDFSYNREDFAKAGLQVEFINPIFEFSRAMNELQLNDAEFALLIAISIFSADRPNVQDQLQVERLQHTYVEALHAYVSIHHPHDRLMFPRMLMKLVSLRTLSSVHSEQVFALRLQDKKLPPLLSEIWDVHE
Experimental: (§1) While running the LanthaScreen™ TR-FRET Liver X Receptor Coactivator Assay, LXR alpha-LBD or LXR beta-LBD was added to ligand test compounds followed by addition of a mixture of a fluorescein-labelled coactivator peptide and terbium-conjugated anti-GST antibody. After an incubation period at room temperature, TR-FRET (time-resolved fluorescence resonance energy transfer) was measured using a filter-based instrument capable of TR-FRET, e.g. PerkinElmer Envision.

[2] = biological target: T2, glutathione-S-transferase (GST) tagged LXRbeta LBD (ligand binding domain) (Homo sapiens, UniProt P55055); test: LanthaScreen TR-FRET Liver X Receptor Coactivator Assay, LXR beta; format: biochemical; settings: for pEC50: LXR beta IP, potency (Inflection Point), compound-induced co-activator recruitment, TR-FRET; for Emax: read-out: LXR beta actiivty at max dose, efficacy (% Emax) in relation to reference dual agonist T0901317
T2 construct: purchased Invitrogen pv4658
T2 sequence (P55055 222-460 limits assumed): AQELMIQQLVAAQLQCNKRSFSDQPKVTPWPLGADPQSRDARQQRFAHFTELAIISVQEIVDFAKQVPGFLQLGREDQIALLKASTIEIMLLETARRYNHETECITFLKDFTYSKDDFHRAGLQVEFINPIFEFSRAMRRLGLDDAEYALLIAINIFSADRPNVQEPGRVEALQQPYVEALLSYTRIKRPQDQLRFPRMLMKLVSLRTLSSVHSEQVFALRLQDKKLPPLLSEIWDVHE
Experimental: as §1

[3] = efficacy (% Emax) in relation to reference dual agonist T0901317
[4] = read-out: LXR alpha actiivty at max dose, efficacy (% Emax) in relation to reference dual agonist T0901317

Compound: COc1cccc(C(O)(C(=O)N2CCC3(CCC(Oc4ccc(C(=O)N(C)C)c(Cl)n4)CC3)CC2)C(F)(F)F)c1 (single isomer, unassigned) [Example 1-3, 2-chloro-N,N-dimethyl-6-(3-((R or S)-3,3,3-trifluoro-2-hydroxy-2-(3-methoxyphenyl)propanoyl)-3-azaspiro[5.5]undecan-9-yloxy)nicotinamide]
- pEC50 ([1]; LXR alpha IP): 5.94
- LXR alpha actiivty at max dose [1, 3]: 21%
- pEC50 [2]: 7.12
- LXR beta actiivty at max dose [2, 3]: 84%

Compound: CN(C)C(=O)c1ccc(OCC[C@@H]2C[C@@H]2C2CCN(C(=O)c3c(F)cccc3F)CC2)cc1Cl (single isomer, unassigned) [Example 10-2, 2-chloro-4-(2-((1S,2R or 1R, 2S)-2-(1-(2,6-difluorobenzoyl)piperidin-4-yl)cyclopropyl)ethoxy)-N,N-dimethylbenzamide]
- pEC50 ([1]; LXR alpha IP): 5.82
- Emax [1, 4]: 14%
- pEC50 [2]: 6.97
- Emax [2]: 69%

Compound: CN(C)C(=O)c1ccc(OCCCCC2CCN(C(=O)C(O)(c3cccc(-c4cnn(C)c4)c3)C(F)(F)F)CC2)cc1Cl (single isomer, unassigned) [Example 3-19, (R or S)-2-chloro-N,N-dimethyl-4-(4-(1-(3,3,3-trifluoro-2-hydroxy-2-(3-(1-methyl-1H-pyrazol-4-yl)phenyl)propanoyl)piperidin-4-yl)butoxy)benzamide]
- pEC50 ([1]; LXR alpha IP): 5.94
- Emax [1, 4]: 25%
- pEC50 [2]: 6.91
- Emax [2]: 24%

Compound: CN(C)C(=O)c1ccc(OCCCCC2CCN(C(=O)C(C)(C)c3ccccc3)CC2)cc1Cl [Example 3-6, 2-chloro-N,N-dimethyl-4-(4-(1-(2-methyl-2-phenylpropanoyl)piperidin-4-yl)butoxy)benzamide]
- LXR alpha IP [1]: No IP
- Emax [1, 4]: 8%
- pEC50 [2]: 7.11
- Emax [2]: 64%

Compound: CNC(=O)c1ccc(OC[C@H]2C[C@@H]2C2CCN(C(=O)[C@](O)(c3ccccc3)C(F)(F)C(F)(F)F)CC2)cc1Cl (single isomer, unassigned) [Example 32-5, 2-chloro-N-methyl-4-(((1S,2R or 1R,2S)-2-(1-((R or S)-3,3,4,4,4-pentafluoro-2-hydroxy-2-phenylbutanoyl)piperidin-4-yl)cyclopropyl)methoxy) benzamide]
- pEC50 ([1]; LXR alpha IP): 5.81
- Emax [1, 4]: 33%
- pEC50 [2]: 6.87
- Emax [2]: 149%

Compound: CN(C)C(=O)c1ccc(OC2CC(CC3CCN(C(=O)[C@](O)(c4ccccc4)C(F)(F)F)CC3)C2)cc1Cl (single isomer, unassigned) [Example 37-11, (R or S)-2-chloro-N,N-dimethyl-4-(3-((1-(3,3,3-trifluoro-2-hydroxy-2-phenylpropanoyl)piperidin-4-yl)methyl)cyclobutoxy) benzamide]
- pEC50 ([1]; read-out: LXR alpha IP): 6.25
- Emax [1, 4]: 33%
- pEC50 [2]: 7.04
- Emax [2]: 113%

Compound: CCNC(=O)c1ccc(OCCCCC2CCN(C(=O)[C@](O)(c3ccccc3)C(F)(F)F)CC2)cc1Cl (single isomer, unassigned) [Example 8-10, (R or S)-2-chloro-N-ethyl-4-(4-(1-(3,3,3-trifluoro-2-hydroxy-2-phenylpropanoyl)piperidin-4-yl)butoxy) benzamide]
- pEC50 ([1]; LXR alpha IP): 6.14
- Emax [1, 4]: 28%
- pEC50 [2]: 7.52
- Emax [2]: 76%

Compound: CN(C)C(=O)c1ccc(OCCC2CC23CCN(C(=O)C2(c4ccccc4)CCCC2)CC3)cc1Cl (single isomer, unassigned) [Example 12-1, (R or S)-2-chloro-N,N-dimethyl-4-(2-(6-(1-phenylcyclopentanecarbonyl)-6-azaspiro[2.5]octan-1-yl)ethoxy)benzamide]
- Emax ([1]; efficacy (% Emax) in relation to reference dual agonist T0901317, read-out: LXR alpha actiivty at max dose): 1%
- LXR alpha IP [1]: No IP
- pEC50 [2]: 7.62
- Emax [2]: 58%

Compound: CN(C)CCCNC(=O)c1ccc(OCCCCC2CCN(C(=O)[C@](O)(c3ccccc3)C(F)(F)F)CC2)cc1Cl (single isomer, unassigned) [Example 8-19, (R or S)-2-chloro-N-(3-(dimethylamino)propyl)-4-(4-(1-(3,3,3-trifluoro-2-hydroxy-2-phenylpropanoyl)piperidin-4-yl)butoxy) benzamide]
- pEC50 ([1]; LXR alpha IP): 5.91
- Emax [1, 4]: 36%
- pEC50 [2]: 7.48
- Emax [2]: 53%
